Earlier results, collected in patent publication US20070190036A1, “Microencapsulation of pancreatic islets within a thin coat of glucagon-like peptide-1 functionalized poly(ethylene glycol)” (priority 2006, published 2007).

Tested on: rat pancreatic islets
Conditions: isolated rat pancreatic islets

glucagon-like peptide 1 [GLP-1]
concentration at which insulinotropic activity began: 2.5 nM | concentration at which insulinotropic activity was saturated: 250 nM
